Measured values taken from PMC6749314, “Development of the Tumor-Specific Antigen-Derived Synthetic Peptides as Potential Candidates for Targeting Breast and Other Possible Human Carcinomas” (Molecules, 2019).
Read-outs that look alike come from different tables or passages of the source. Blank lines part the entries; values can stand above or below the substance they belong to.

Key:
[1] = molecular target: human epidermal growth factor receptor 2 (HER2) (human (endogenous in SKBR3, MCF7, T47D)) (UniProt P04626); experiment: radioligand binding; saturation binding of 99mTc-labeled peptide (0.1-30 nM) to ~300,000 MCF7 cells in low-serum media, 60 min, room temperature; non-specific binding with ~200-fold molar excess of unlabeled peptide; nonlinear regression
[2] = molecular target: human epidermal growth factor receptor 2 (HER2) (human (endogenous in SKBR3, MCF7, T47D)) (UniProt P04626); experiment: radioligand binding; saturation binding of 99mTc-labeled peptide (0.1-30 nM) to ~300,000 T47D cells in low-serum media, 60 min, room temperature; non-specific binding with ~200-fold molar excess of unlabeled peptide; nonlinear regression
[3] = system: breast carcinoma xenografts; conditions: radiolabeled KCCYSL peptides, ref [8],[19]; cited from earlier work
Description: Several small peptide molecules have been developed in recent years for targeting HER2-positive breast cancer. For example, a 6-amino-acid containing peptide, KCCYSL, was discovered by the phage display method after in vitro selection with a recombinant ERBB2 extracellular domain. The KCCYSL peptide, derivatized with different metal chelators (i.e., DOTA, NOTA, CB-TE2A, and DAP) and radiolabeled with radionuclide metal ions (e.g., ^111In, ^64Cu, ^99mTc), has been successfully used for in vivo imaging of HER2 overexpressing tumor models. The tumor cell binding affinity (Kd) of KCCYSL for ...

[4] = molecular target: p185HER2/neu; conditions: binding to p185HER2/neu; ref [22],[23],[24]; cited from earlier work
Description: AHNP peptide was able to disable HER2 tyrosine kinases in vitro and in vivo similar to the monoclonal antibody from which it was derived. […] It has been shown that AHNP diminished the early tyrosine phosphorylation of p185HER2/neu, and inhibited proliferation of p185HER2/neu overexpressing tumor cells in ...

[5] = system: SKBR3 cells; experiment: Cellular internalization (acid wash); format: cell-based, human; conditions: % of cell-surface bound radiopeptide internalized, acidic buffer pH 5.0, 10 min, 37 °C
Protocol: (§1) In order to differentiate between cell-surface bound and cellular internalized radioactivity, cell pellet was treated with 0.3 mL of acidic buffer (0.02 M sodium acetate in saline, pH 5.0) for 10 min at 37 °C at the end of the binding experiment, followed by centrifugation and washing with cold acidic buffer. The amount of cell surface-bound (acid-wash) and internalized (acid-resistant) radioactivity was determined by measuring the radioactivity of the supernatant and the cell-pellet, respectively, in a γ-counter.

[6] = system: T47D cells; experiment: Cellular internalization (acid wash); format: cell-based, human; conditions: % of cell-surface bound radiopeptide internalized, acidic buffer pH 5.0, 10 min, 37 °C
Protocol: as §1

[7] = system: MCF7 cells; experiment: Cellular internalization (acid wash); format: cell-based, human; conditions: % of cell-surface bound radiopeptide internalized, acidic buffer pH 5.0, 10 min, 37 °C
Protocol: as §1

[8] = system: HER2-positive SKBR3 tumor xenografts; conditions: for tumor uptake: nude mice, n = 3-5, mean ± SD
Protocol: (§3) In vivo biodistribution studies were performed on healthy Balb/c mice (n = 3–5 in each group, body mass 19–22 g) at 1 and 4 h after i.v. injection of the HPLC-purified radiopeptide (100 μL, 10–15 μCi, total peptide dose ~10 ng) via the lateral tail vein as described previously [54]. Mice were euthanized by cervical dislocation at specified times, the selected tissues/organs were removed, and radioactivity was measured in a γ-counter. Uptake of radioactivity in the tissues and organs was expressed as the percent injected dose per gram (% ID/g) of tissue/organ, which was calculated by comparison with standard solutions representing 10% of the injected dose per animal. For the clearance studies, radioactivity in the urine with bladder is expressed as the percent of the injected dose per organ (% ID/organ).
(§4) Approximately 7 million HER2-positive SKBR3 cells and MUC1-positive MCF7 and T47D breast tumor xenografts were injected subcutaneously into a group of nude female mice and allowed to grow for 4 to 6 weeks. After sufficient growth of tumors, the animals were sacrificed and the uptake of ^99mTc-HER2 and ^99mTc-MUC1 by the tumors and other major organs was determined by biodistribution experiments, as described above.
(§5) In general, for preclinical gamma camera imaging, each tumor-bearing mouse model was intravenously injected with ~200 μCi of ^99mTc-HER2 or ^99mTc-MUC1 peptide through the tail vein. Mouse static planar images were then acquired at 1 h after the radiotracer injection by a portable hand-held γ-camera equipped with CsI(Tl) scintillation detector, with intrinsic spatial resolution of 2.45 mm (IP guardian 2, Li-Tech, Italy).

[9] = system: MCF7 tumor xenografts; conditions: for tumor uptake: nude mice, mean ± SD
Protocol: as §3, §4, §5

[10] = set-up: species or system Balb/c mice; conditions: mouse, in vivo, iv
Protocol: Approval for the animal protocol used in this study was obtained from the Institutional Animal Care and Use Committee. Animal studies were conducted according to the international regulations governing the safe and proper use of laboratory animals [48]. In vivo biodistribution studies were performed on healthy Balb/c mice (n = 3–5 in each group, body mass 19–22 g) at 1 and 4 h after i.v. injection of the HPLC-purified radiopeptide (100 μL, 10–15 μCi, total peptide dose ~10 ng) via the lateral tail vein as described previously [54]. Mice were euthanized by cervical dislocation at specified times, the selected tissues/organs were removed, and radioactivity was measured in a γ-counter. Uptake of radioactivity in the tissues and organs was expressed as the percent injected dose per gram (% ID/g) of tissue/organ, which was calculated by comparison with standard solutions representing 10% of the injected dose per animal. For the clearance studies, radioactivity in the urine with bladder is expressed as the percent of the injected dose per organ (% ID/organ).

[11] = system: T47D tumor xenografts; conditions: for tumor uptake: nude mice, mean ± SD
Protocol: as §3, §4

[12] = system: MDA-MB-231 breast xenografts; experiment: In vivo tumor targeting, MDA-MB-231 xenografts (negative control); conditions: nude mice, HER2-/MUC1-negative MDA-MB-231 xenografts, mean ± SD
[13] = system: MCF7 breast cancer cell line; experiment: In vitro tumor cell binding (saturation, Kd); set-up: species or system human; conditions: ~300,000 cells, 0.1-30 nM radiopeptide, 60 min, room temperature, duplicate, non-specific with ~200-fold excess unlabeled peptide, mean ± SD
Protocol: (§2) The cell-binding studies of ^99mTc-labeled HER2 and MUC1 peptides into respective HER2 and MUC1-positive human breast cancer cell lines (American Type Culture Collection, Rockville, MD, USA) was performed according to the method described previously. In brief, ~300,000 cells (in 0.3 mL low-serum media) were incubated with various amounts of radiopeptides, ranging between 0.1 and 30 nM of peptides (prepared from the serial dilutions of HPLC-purified radiopeptides), in duplicate for 60 min at room temperature. Incubation was terminated by dilution with cold saline (0.3 mL) and the cells were pelleted by centrifugation. The cell-pellets was then rapidly washed with cold saline to remove any unbound peptide and centrifuged to collect supernatants. Radioactivity in the cell-pellet and the washings was measured in a γ-counter. Non-specific binding was determined in the presence of ~200-fold molar excess of unlabeled peptide. Specific binding was calculated by subtracting the non-specifically bound radioactivity from that of the total binding. The dissociation constant (Kd) was calculated using a plot of specific cell-bound radioactivity versus increasing concentrations of the radiopeptide using a nonlinear regression analysis program (GraphPad Prism Software Inc., San Diego, CA, USA).

[14] = system: T47D breast cancer cell line; experiment: In vitro tumor cell binding (saturation, Kd); set-up: species or system human; conditions: for Kd: T47D, ~300,000 cells, 0.1-30 nM radiopeptide, 60 min, room temperature, duplicate, non-specific with ~200-fold excess unlabeled peptide, mean ± SD
Protocol: as §2

[15] = system: HER2-positive SKBR3 breast cancer cell line; experiment: In vitro tumor cell binding (saturation, Kd); set-up: species or system human
Protocol: as §2

[16] = Radio-HPLC retention time on C18 reversed-phase column; format: physicochemical; conditions: Econosphere C18 (10 μm, 250 × 4.6 mm), 0.1% TFA water/CH3CN, 5 to 95% B over 30 min, 1.1 mL/min, longer retention ascribed to higher lipophilicity
Protocol: The HPLC analysis and purification of the peptides were performed on a Shimadzu HPLC system using Econosphere C18 reversed-phase column (10 μm, 250 × 4.6 mm, Alltech, Deerfield, IL, USA). For HPLC experiments, a gradient solvent system of 0.1% (v/v) TFA in water (solvent A) and 0.1% (v/v) TFA in CH3CN (solvent B) at a flow rate of 1.1 mL/min was used. The HPLC gradient began with a solvent composition of 95% A and 5% B from 0 to 2.5 min followed by a linear gradient of 95% A and 5% B to 5% A and 95% B over 30 min. The gradient remained at this position for 3 min before switching back to 95% A and 5% B for another 7 min. The main peak of each radiolabeled peptide was isolated, and acetonitrile then evaporated under a stream of nitrogen gas. The HPLC system (Shimadzu Corporation, Kyoto, Japan) was equipped with a UV-VIS detector (Shimadzu Corporation, Kyoto, Japan) set at 220 nm, a Flow-count γ-radioactivity detection system (Bioscan Inc., Washington, DC, USA) and the Lauralite HPLC chromatogram analysis program (LabLogic Systems Ltd., Sheffield, UK). Radiochemical purity was estimated by evaluating radioactivity peaks eluted for each ^99mTc-labeled peptide from the HPLC column and calculating the area under the peak (ROI). The HPLC-purified compounds were reconstituted in sterile saline and used for in vitro and in vivo experiments.

[17] = format: physicochemical
Description: Table 1 Characterization of ^99mTc-HER2 and ^99mTc-MUC1 peptides. | column: Log P (Octanol/Saline)

[18] = MCF7 xenografts, 1 h p.i., unblocked

Substance: 99mTc-HER2 hybrid peptide (Acetyl-Gly-Gly-Cys-ALA-Lys-Ile-Phe-Gly-Ser-Leu-Ala-Phe-Leu-Lys-Cys-Cys-Tyr-Ser-Leu-CONH2)
Kd [1]: 158 nM
Kd [2]: 169 nM

Substance: KCCYSL [literature values for chelator-derivatized, radiolabeled forms]
tumor uptake [3]: below 1 % ID/g

Substance: FCDGFYACYADVGGG [AHNP, anti-HER2/neu peptidomimetic designed from heavy-chain CDR3 loop of trastuzumab]
Kd [4]: 150 nM

Now from value to substance, other results behind:

hepatobiliary excretion (liver + intestines) ([8]; mouse, in vivo): below 15 % ID
kidney accumulation and retention ([8]; mouse, in vivo): up to 10 % ID/g
radioactivity excreted in the urine ([8]; mouse, in vivo): up to 41 % ID
radioactivity found in the urine [10]: up to 40.0 ± 5.10 % ID
HPLC Retention Time [16]: 20.0 min
Log P (Octanol/Saline) [17]: 1.38 ± 0.06
Substance: Acetyl-Gly^19-Gly^18-Cys^17-ALA^16-Lys^15-Ile^14-Phe^13-Gly^12-Ser^11-Leu^10-Ala^9-Phe^8-Leu^7-Lys^6-Cys^5-Cys^4-Tyr^3-Ser^2-Leu^1-CONH2 [^99mTc-HER2]
% Internalization [5]: 19.90 ± 5.35%
% Internalization [6]: 11.85 ± 2.83%
% Internalization [7]: 12.16 ± 3.20%
tumor-to-blood ratio ([8]; SKBR3 xenografts, 1 h p.i.): 1.54
tumor-to-muscle ratio ([8]; SKBR3 xenografts, 1 h p.i.): 9.37
tumor-to-blood ratio ([8]; SKBR3 xenografts, 4 h p.i.): 1.34
tumor-to-muscle ratio ([8]; SKBR3 xenografts, 4 h p.i.): 8.71
washout from the tumors ([8]; SKBR3 xenografts, over 4 h): 57%
tumor uptake, blocked ([8]; SKBR3 xenografts, 100 μg of HER2 peptide 30 min before injection of radiopeptide): 1.07 ± 0.24 % ID/g
reduction of tumor uptake by blocking dose ([8]; SKBR3 xenografts, 100 μg of HER2 peptide 30 min before, P = 0.02): approximately 62%
tumor uptake ([8]; SKBR3 xenografts, 1 h p.i., unblocked): 2.81 ± 0.79 % ID/g
tumor uptake ([8]; SKBR3 xenografts, 4 h p.i.): 1.22 ± 0.25 % ID/g
gamma camera imaging of tumor ([8]; nude mouse, SKBR3 xenografts, 1 h p.i., ~200 μCi i.v.): detectable in the image
tumor uptake [9, 18]: 1.33 ± 0.41 % ID/g
tumor uptake ([9]; MCF7 xenografts, 4 h p.i.): 0.91 ± 0.22 % ID/g
tumor uptake ([11]; T47D xenografts, 1 h p.i.): 1.25 ± 0.32 % ID/g
tumor uptake ([11]; T47D xenografts, 4 h p.i.): 0.80 ± 0.17 % ID/g
tumor uptake ([12]; 1 h p.i.): 0.66 ± 0.13 % ID/g
tumor uptake ([12]; 4 h p.i.): 0.31 ± 0.10 % ID/g
Kd [13]: 158 ± 24.6 nM
Kd [14]: 169 ± 22.3 nM
Kd ([15]; SKBR3, ~300,000 cells, 0.1-30 nM radiopeptide, 60 min, room temperature, duplicate, non-specific with ~200-fold excess unlabeled peptide, mean ± SD): 50 ± 14.2 nM
binding affinity higher for SKBR3 cells than MCF7 and T47D cell lines ([15]; ratio of Kd values): more than 3 fold

hepatobiliary excretion (liver + intestines) ([9]; mouse, in vivo): below 13 % ID
radioactivity excreted in the urine ([9]; mouse, in vivo): up to 49 % ID
radioactivity found in the urine [10]: up to 47.0 ± 6.28 % ID
accumulation in the kidneys ([11]; mouse, in vivo): 2.26 ± 0.36 % ID/g
cleared from the kidneys ([11]; mouse, in vivo): 48%
hepatobiliary excretion ([11]; mouse, in vivo): below 13 % ID
initial accumulation in the kidneys ([11]; mouse, in vivo): 4.35 ± 1.0 % ID/g
radioactivity remaining in the blood circulation ([11]; mouse, in vivo): 0.30 ± 0.07 % ID/g
HPLC Retention Time [16]: 14.10 min
Log P (Octanol/Saline) [17]: −2.22 ± 0.12
Substance: Ac-GGCEPDTRP-NH2 [^99mTc-MUC1]
% Internalization [6]: 21.11 ± 2.95%
% Internalization [7]: 18.92 ± 2.16%
tumor-to-blood ratio ([9]; MCF7 xenografts, 1 h p.i.): 2.39
tumor-to-muscle ratio ([9]; MCF7 xenografts, 1 h p.i.): 18.47
tumor-to-blood ratio ([9]; MCF7 xenografts, 4 h p.i.): 1.09
tumor-to-muscle ratio ([9]; MCF7 xenografts, 4 h p.i.): 11.20
washout from the tumors ([9]; MCF7 xenografts, over 4 h): 60%
tumor uptake, blocked ([9]; MUC1-positive (MCF7) xenografts, 100 μg of unlabeled MUC1 peptide 30 min before injection of radiopeptide): 1.05 ± 0.21 % ID/g
reduction of tumor uptake by blocking dose ([9]; MUC1-positive (MCF7) xenografts, 100 μg unlabeled MUC1 peptide 30 min before, P = 0.02): approximately 62%
tumor uptake [9, 18]: 2.77 ± 0.63 % ID/g
tumor uptake ([9]; MCF7 xenografts, 4 h p.i.): 1.12 ± 0.30 % ID/g
gamma camera imaging of tumor ([9]; nude mouse, MCF7 xenograft, 1 h p.i., ~200 μCi i.v.): detectable in the image
tumor-to-blood ratio ([11]; T47D xenografts, 1 h p.i.): 3.27
tumor-to-muscle ratio ([11]; T47D xenografts, 1 h p.i.): 12.62
tumor-to-muscle ratio ([11]; T47D xenografts, 4 h p.i.): 11.40
tumor uptake ([11]; T47D xenografts, 1 h p.i.): 2.65 ± 0.54 % ID/g
tumor uptake ([11]; T47D xenografts, 4 h p.i.): 1.14 ± 0.21 % ID/g
tumor uptake ([12]; 1 h p.i.): 0.64 ± 0.13 % ID/g
tumor uptake ([12]; 4 h p.i.): 0.41 ± 0.10 % ID/g
Kd [13]: 10.3 ± 1.55 nM
Kd [14]: 3.48 ± 0.84 nM
binding affinity higher to T47D cell line compared to MCF7 cell line ([14]; ratio of Kd values): 3 fold
